# Experimental data: patent publication US10028902B2, “Nuclear localization of GLP-1 stimulates myocardial regeneration and reverses heart failure” (BAYLOR RESEARCH INSTITUTE, priority 2013, dated 2018)
# Assays:
# [1] = test system: FoxO1; test: FOXO1 inhibitor injection in rats with ADM cardiomyopathy; assay type: in vivo, rat; settings: total dose 24 mg/kg ip
# Description: Animal protocol-4: Specific FOXO1 inhibitor (AS1842856, a small molecular compound from Millipore) was injected into rats with ADM cardiomyopathy to investigate if FOXO1 mediates ADM cardiomyopathy. There were 3 groups of rats as follows: (1) normal control rats, n=6; (2) ADM injection only group at total dose of 15 mg/kg/ip, 2.5 mg/kg/ip 6 times over 2 weeks, (n=6); (3) ADM at total dose of 15 mg/kg/ip, 2.5 mg/kg/ip 6 times over 2 weeks plus FOXO1 inhibitor injection (at total dose of 24 mg/kg/ip, 4 mg/kg/ip 6 times over 2 weeks (n=6). All rats were killed 4 weeks after ADM injection.
# (§1) Echocardiographic measurements of LV fractional shortening and LV posterior wall thickness were made from digital images acquired with a 12 MHz broadband transducer (S12 probe, Philips Ultrasound, Bothell, Wash.). Fractional shortening was evaluated from the following formula: FS=(LVIDd−LVIDs)/LVIDd×100.
# [2] = test system: rat hearts with adriamycin cardiomyopathy; test: Adriamycin cardiomyopathy in rats: gross pathology, Masson's trichrome staining, echocardiography; assay type: in vivo
# Description: (§2) Animal protocol-2: A total of 60 rats were divided into: (1) no treatment (normal control rats, n=12); (2) adriamycin (ADM)^38 injection only, at total dose of 15 mg/kg/ip, 2.5 mg/kg/ip 6 times over 2 weeks, n=12. (3) ADM plus GLP-1 peptide injection, at GLP-1 peptide fragment 7-37 human (dose of 50 nmol/kg/ip/time×6, N=12, from Sigma, St Louis, Mo.), (4) ADM injection plus UTMD-GLP1 peptide delivery (same dose of GLP-1 peptide fragment 7-37 human mixed with microbubble for UTMD), n=12; (5) ADM injection plus UTMD with pXL-BASII-CI-GLP-1/pCI-hyPB, n=12. Half rats were killed at 16 hours after last ADM injection; other half rats were killed at 4 weeks after UTMD. The thymidine analog, 5-bromo-2-deoxyuridine (BrdU) (100 mg/kg) was injected intraperitoneally 6 hours prior to euthanasia.
# Animal protocol-3: UTMD was performed after established adriamycin cardiomyopathy defined as a fractional shortening <30% by echocardiography. There were 3 groups of rats as follows: (1) normal control rats, n=6; (2) UTMD with pXL-BASII-CI-DsRed/pCI-hyPB (n=6); (3) UTMD with pXL-BASII-CI-GLP-1/pCI-hyPB (n=12). All rats were killed 4 weeks after UTMD. The thymidine analog, 5-bromo-2-deoxyuridine (BrdU) (100 mg/kg) was injected intraperitoneally 6 hours prior to euthanasia.
# Piggybac transposon donor plasmids and helper plasmids ratio (pXL-BASII-CI-GLP-1/pCI-hyPB) was 5:1. Microbubble or control solutions (0.5 ml diluted with 0.5 ml phosphate-buffered solution (PBS)) were infused over 5 min via pump (Genie, Kent Scientific, Torrington, Conn.). During the infusion, ultrasound was directed to the heart using a commercially available ultrasound transducer (S3, Sonos 5500, Philips Ultrasound, Bothell, Wash.). […]
# as §1
# [3] = test system: FoxO1; test: Myocardial nuclear FoxO1 in adriamycin cardiomyopathy rats (western blot, qRT-PCR); assay type: in vivo, rat
# Description: as §2, with “euthanasia. […]” for “euthanasia.”
# (§3) Nuclear proteins extracts from cardiac tissue with a NE-PER Nuclear and Cytoplasmic Extraction Kit (Thermo Scientific, Rockford, Ill. 61105, USA). Protein concentrations were determined using the BCA-200 Protein Assay kit (Pierce); equal amounts of protein were separated by SDS-PAGE. […] Horseradish peroxidase secondary antibodies were used, and chemiluminescence was determined using the Super Signal West Dura detection system (Pierce); nuclear marker (lamin) was used to confirm equal loading. […]
# [4] = test system: HL-1 cardiac muscle cell line; test: Nuclear FoxO1 in HL-1 cardiac muscle cell line treated with adriamycin (immunofluorescent staining); assay type: cell-based; settings: 0.25, 0.5, and 1.0 μM, 48 hrs, HL-1 cells
# Description: The HL-1 cell line was a generous gift from Dr. William C. Claycomb^40 in Louisiana State University Medical Center, New Orleans, La. The cells were maintained in Claycomb basal medium (Sigma) supplemented with 10% fetal bovine serum, 0.1 mM norepinephrine and 2 mM L-glutamine. HL-1 cells were treated with adriamycin at 0 μM, 0.25 μM, 0.50 μM, or 1.00 μM for 48 hrs in complete growth medium, and were subjected to immunofluorescent staining.
# [5] = test system: Topoisomerase IIβ; test: Myocardial nuclear topoisomerase IIβ expression (western blot, qRT-PCR); assay type: in vivo, rat; settings: ADM only or ADM plus UTMD-GLP-1NLS groups, P<0.001
# Description: […] Half rats were killed at 16 hours after last ADM injection; other half rats were killed at 4 weeks after UTMD. The thymidine analog, 5-bromo-2-deoxyuridine (BrdU) (100 mg/kg) was injected intraperitoneally 6 hours prior to euthanasia.
# Total RNA was isolated from 100 mg of harvested heart using the Trizol reagent (Invitrogen), according to the manufacturer's instructions and reverse-transcribed using Superscript III RT (Invitrogen). Real-time RT-qPCR analysis was performed on an ABI 7700 Sequence Detector (Applied Biosystems) using SYBR Green (RT2 SYBR Green qPCR Kit, Qiagen). Data were normalized to HKG expression (endogenous control). Changes in gene expression were normalized to control rat heart tissue. Complementary DNA PCR primer sequences information should be requested to the correspondence author.
# as §3
# [6] = intravenous infusions, patients with myocardial infarction or chronic heart failure; cited from earlier work
compound,measurement,setting,value
CCn1cc(C(=O)O)c(=O)c2c(N)c(F)c(NC3CCCCC3)cc21 [AS1842856],activation of myocardial nuclear FoxO1,"[1]; ADM cardiomyopathy rats, FIG. 12",able to block
same,"ADM cardiomyopathy (fractional shortening, LVPWd)",[1]; FIG. 12 panel A-B,reverse
"COc1cccc2c1C(=O)c1c(O)c3c(c(O)c1C2=O)C[C@@](O)(C(=O)CO)C[C@@H]3O[C@H]1C[C@H](N)[C@H](O)[C@H](C)O1 [Adriamycin, adriamycin]",LV mass and wall thickness,"[2]; echocardiography, adriamycin cardiomyopathy, total dose 15 mg/kg ip",decreased
same,gross pathology of LV walls and cavities compared to normal controls,"[2]; rats with adriamycin cardiomyopathy, FIG. 2 B, C",thin LV walls and dilated LV cavities
same,"FoxO1 mRNA level, fold relative to normal control or normal plus UTMD-GLP-1NLS groups","[3]; qRT-PCR, FIG. 6B, ADM only group, or ADM after UTMD GLP-1NLS gene delivery",12.6 fold
same,FoxO1 in cardiac nuclear protein extracts,"[3]; western blots, FIG. 6A",significant increase
same,overexpression of nuclear FoxO1,[4],significantly activates
same,"TOP IIβ mRNA level in normal group, fold greater than in the treated group",[5],18 fold
"GLP-1 peptide fragment 7-37 human (HAEGTFTSDVSSYLEGQAAKEFIAWLVKGRG; Glucagon-like peptide 1(7-37); UniProt P01275 98-128, looked up) [GLP-1 peptide fragment 7-37 human from Sigma, injected ip]",LV mass and wall thickness in adriamycin cardiomyopathy after therapy,"[2]; echocardiography, FIGS. 4 and 11",not
GLP-1 protein: GLP-1 protein given by intravenous infusion to patients in cited studies,global LV function and the function of ischemic LV segments,[6],improved
